Measurements as given in the supplement of paper PMC5579334.

Key:
HSC2 [1] = assay: relative IC50 (inflection point of fitted dose-response curve, CellTox-Green cytotoxicity, 72 h; top asymptote may be below 50%); higher = less potent
How it was run: (§1)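 For 72 h at 37 °C, MPNST cell lines and primary human Schwann cells were exposed in 384-well plates to five 10-fold compound dilutions. CellTox-Green, added before seeding at a final 1:1000 dilution, gave fluorescence from DNA released by disrupted cells. Signals were scaled to vehicle and positive-control wells, cultures failing plate quality control were left out, and four-parameter logistic fits were applied. Relative IC50 and drug sensitivity score were derived from the fits, with IC50 censored at the top concentration.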

HS-PSS [2] = assay: as above
How it was run: as §1

HSC1 [3] = assay: as above
How it was run: as §1

ST8814 [4] = assay: as above
How it was run: as §1

STS26T [5] = assay: as above
How it was run: as §1

YST-1 = assay: relative IC50 (inflection point of fitted dose-response curve, CellTiter-Glo viability, 72 h; top asymptote may be below 50% inhibition); higher = less potent
How it was run: (§2)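 MPNST cell lines and primary human Schwann cells were seeded at 750–1000 cells per well into 384-well plates preprinted with each compound at five concentrations in 10-fold steps, then incubated 72 h at 37 °C, 5% CO2. CellTiter-Glo ATP luminescence gave viability, scaled between vehicle and positive-control wells, with duplicates averaged where present. Curves were fitted with a four-parameter logistic model. Percent inhibition refers to the top concentration, while drug sensitivity score and relative IC50, censored at the top concentration, come from these fits.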

HS-PSS [6] = assay: as above
How it was run: as §2

HSC1 [7] = assay: as above
How it was run: as §2

ST8814 [8] = assay: as above
How it was run: as §2

S1507-2 = assay: as above
How it was run: as §2

HS-Sch-2 = assay: as above
How it was run: as §2

STS26T [9] = assay: as above
How it was run: as §2

S462 = assay: as above
How it was run: as §2

HSC2 [10] = assay: as above
How it was run: as §2

SMILES | relative IC50 (HSC2 [1]) [µM] | relative IC50 (HS-PSS [2]) [µM] | relative IC50 (HSC1 [3]) [µM] | relative IC50 (ST8814 [4]) [µM] | relative IC50 (STS26T [5]) [µM] | relative IC50 (YST-1) [µM] | relative IC50 (HS-PSS [6]) [µM] | relative IC50 (HSC1 [7]) [µM] | relative IC50 (ST8814 [8]) [µM] | relative IC50 (S1507-2) [µM] | relative IC50 (HS-Sch-2) [µM] | relative IC50 (STS26T [9]) [µM] | relative IC50 (S462) [µM] | relative IC50 (HSC2 [10]) [µM]
Cc1cccc(-c2nn3c(c2-c2ccnc4ccc(C(N)=O)cc24)CCC3)n1 [Galunisertib] | > 1 | > 1 | > 1 | > 1 | > 1 | > 1 | > 1 | > 1 | > 1 | > 1 | > 1 |  |  | 
Cc1cnc(NC(=O)Nc2cc(Br)c(C)cc2OC[C@@H]2CNCCO2)cn1 [Rabusertib] | > 1 | > 1 |  | > 1 | 0.33 | 0.242 |  |  | > 1 | 0.236 | 0.302 | 0.189 | 0.319 | 
Cc1c(C(=O)Nc2ccc(N3C[C@@H](C)O[C@@H](C)C3)nc2)cccc1-c1ccc(OC(F)(F)F)cc1 [Erismodegib] |  |  |  | > 10 | > 10 |  |  | > 10 | > 10 |  |  |  | > 10 | > 10
COc1cc2c(NC3CCN(C(C)C)CC3)nc(C3CCCCC3)nc2cc1OCCCN1CCCC1 [UNC0638] | > 10 | 2.54 |  | 2.23 | 3.39 | 2.87 | 1.74 |  | 2.64 | 1.72 | 2.27 | 3.5 | 2.73 | 
CC1=C(/C=C/C(C)=C/C=C/C(C)=C/C(=O)O)C(C)(C)CCC1 [Tretinoin] | > 10 | > 10 | > 10 | > 10 | > 10 | > 10 | > 10 | 0.361 |  |  | > 10 |  | > 10 | 
C=C(c1ccc(C(=O)O)cc1)c1cc2c(cc1C)C(C)(C)CCC2(C)C [Bexarotene] | > 10 | > 10 | > 10 | > 10 | > 10 | > 10 | > 10 |  | > 10 |  | > 10 | > 10 | > 10 | > 10
CN(C)C/C=C/C(=O)Nc1cc2c(Nc3ccc(F)c(Cl)c3)ncnc2cc1O[C@H]1CCOC1 [Afatinib] | > 1 | > 1 | > 1 | > 1 | > 1 | > 1 | 0.148 | > 1 | > 1 |  |  | > 1 | > 1 | > 1
COc1cc2c(Oc3ccc4[nH]c(C)cc4c3F)ncnc2cc1OCCCN1CCCC1 [Cediranib] |  | > 1 | > 1 |  | > 1 | > 1 |  |  | > 1 |  | > 1 | > 1 | > 1 | > 1
CNCc1ccc(-c2[nH]c3cc(F)cc4c3c2CCNC4=O)cc1 [Rucaparib] | > 10 | > 10 | > 10 | > 10 | > 10 | 0.447 | 1.04 | > 10 | > 10 | > 10 |  | > 10 |  | > 10
Cc1c(N)nc([C@H](CC(N)=O)NC[C@H](N)C(N)=O)nc1C(=O)N[C@H](C(=O)N[C@H](C)[C@@H](O)[C@H](C)C(=O)N[C@H](C(=O)NCCc1nc(-c2nc(C(=O)NCCC[S+](C)C)cs2)cs1)[C@@H](C)O)[C@@H](O[C@@H]1O[C@@H](CO)[C@@H](O)[C@H](O)[C@@H]1O[C@H]1O[C@H](CO)[C@@H](O)[C@H](OC(N)=O)[C@@H]1O)c1c[nH]cn1 [Bleomycin] |  |  | > 10 | 2.85 | 0.328 | 0.594 | 0.835 | 0.58 | 1.62 |  | 0.923 | 1.67 | 2.27 | 0.284
COc1nc(N)nc2c1ncn2[C@@H]1O[C@H](CO)[C@@H](O)[C@@H]1O [Nelarabine] |  | > 10 | > 10 | > 10 | > 10 | > 10 | > 10 | > 10 | > 10 |  | > 10 | > 10 | > 10 | > 10
CC1=C2C[C@H]3[C@@H](CC=C4C[C@@H](O)CC[C@@]43C)[C@@H]2CC[C@]12O[C@@H]1C[C@H](C)CN[C@H]1[C@H]2C [Cyclopamine] | > 10 |  | > 10 | > 10 | > 10 |  |  | > 10 | > 10 |  |  | > 10 | > 10 | > 10
Cc1cnc(Nc2ccc(F)cc2Cl)nc1-c1c[nH]c(C(=O)N[C@H](CO)c2cccc(Cl)c2)c1 [VX-11E] | 0.651 | > 2.5 | 0.874 | 0.816 | 0.896 | > 2.5 | 0.756 | 0.75 | 0.905 | 0.966 | 0.367 | 0.83 |  | 0.696
O=C(c1ccc(OCCN2CCCCC2)cc1)c1c(-c2ccc(O)cc2)sc2cc(O)ccc12 [Raloxifene] | > 10 |  | > 10 | 3.43 | 3.8 | 1.82 | 1.13 | 3.1 | 2.94 | 3.1 | 1.81 | 3.28 |  | 1.84
O=C(c1cc(Cc2n[nH]c(=O)c3ccccc23)ccc1F)N1CCN(C(=O)C2CC2)CC1 [Olaparib] |  | > 10 | > 10 | 3.36 | 3.43 | 0.426 |  | 1.67 | 3.54 |  | 1.36 | 2.33 | 2 | 1.34
COc1ccc(C2=N[C@@H](c3ccc(Cl)cc3)[C@@H](c3ccc(Cl)cc3)N2C(=O)N2CCNC(=O)C2)c(OC(C)C)c1 [Nutlin-3] | > 10 | > 10 | > 10 |  | > 10 | 1.41 |  | 1.49 | 2.05 |  | > 10 |  | > 10 | 1.22

SMILES | relative IC50 (HSC2 [1]) [µM] | relative IC50 (HS-PSS [2]) [µM] | relative IC50 (HSC1 [3]) [µM] | relative IC50 (ST8814 [4]) [µM] | relative IC50 (STS26T [5]) [µM] | relative IC50 (YST-1) [µM] | relative IC50 (HS-PSS [6]) [µM] | relative IC50 (HSC1 [7]) [µM] | relative IC50 (ST8814 [8]) [µM] | relative IC50 (S1507-2) [µM] | relative IC50 (HS-Sch-2) [µM] | relative IC50 (STS26T [9]) [µM] | relative IC50 (S462) [µM] | relative IC50 (HSC2 [10]) [µM]
Cn1cnc(-c2cc3nccc(Oc4ccc(NC(=S)NC(=O)Cc5ccccc5)cc4F)c3s2)c1 [MGCD-265] |  | > 10 | > 10 |  | > 10 |  |  |  | 0.439 | 0.501 | 1.73 |  | 2.1 | 
CC[C@@H]1C(=O)OC[C@@H]1Cc1cncn1C [Pilocarpine] | > 40 | > 40 | > 40 | > 40 | > 40 | > 40 | > 40 | > 40 | > 40 |  |  | > 40 | > 40 | > 40
Cc1ccc(-n2nc(C(C)(C)C)cc2NC(=O)Nc2ccc(OCCN3CCOCC3)c3ccccc23)cc1 [Doramapimod] | > 10 |  | > 10 | > 10 | > 10 | 0.667 | 1.64 | 3.01 | > 10 | > 10 | 2.33 | > 10 |  | 1.76
Cc1ccc(Nc2nccc(N(C)c3ccc4c(C)n(C)nc4c3)n2)cc1S(N)(=O)=O [Pazopanib] | > 10 | > 10 | > 10 | > 10 | > 10 | > 10 | 0.605 |  | > 10 |  |  | > 10 | > 10 | 
Cc1ccc(NC(=O)c2ccc(CN3CCN(C)CC3)cc2)cc1Nc1nccc(-c2cccnc2)n1 [Imatinib] | > 10 |  | > 10 | 3.58 | > 10 | 1.95 | 2.38 | > 10 | 3.53 | 1.96 | 3.19 |  |  | > 10
CC(C)(C)Cn1c(N)nc2ccc(-c3[nH]c(C(C)(C)C)nc3-c3ccc(F)cc3)nc21 [Ralimetinib] | > 10 | > 10 | > 10 | > 10 | > 10 | 0.115 | 4.09 | 2.33 | 1.56 | 2.14 | 3.33 | 2.92 |  | 0.474
CNC(=O)c1ccccc1Sc1ccc2c(/C=C/c3ccccn3)n[nH]c2c1 [Axitinib] |  | > 10 |  |  | 1.38 | 0.972 | 2.58 | 1.2 | 1.36 |  | 1.7 | 1.51 | 0.933 | 0.694
CC(C)C[C@@H](C(=O)N[C@H](C(=O)OC1CCCC1)c1ccccc1)[C@H](O)C(=O)NO [Tosedostat] | > 10 | > 10 | > 10 |  | 0.0253 | 0.222 | 3.27 | 0.138 | 1.24 |  | 0.258 | 0.0814 | 0.424 | 0.0761
CCN1CCN(c2ccc(Nc3cc(N(C)C(=O)Nc4c(Cl)c(OC)cc(OC)c4Cl)ncn3)cc2)CC1 [NVP-BGJ398] | > 1 | > 1 | > 1 | > 1 | > 1 | > 1 | > 1 | > 1 |  |  | > 1 | > 1 | > 1 | > 1
CN(C)C(=N)NC(=N)N [Metformin aq] | > 100 |  | > 100 | > 100 | > 100 |  |  | > 100 | > 100 | > 100 |  | > 100 |  | > 100
CC(C)N(CCCNC(=O)Nc1ccc(C(C)(C)C)cc1)C[C@H]1O[C@@H](n2cc(Br)c3c(N)ncnc32)[C@H](O)[C@@H]1O [SGC0946] | > 10 | 2.49 | > 10 | 3.07 | > 10 | 3.67 | 1.94 |  | 3.45 | 2.09 | 3 | > 10 |  | 
CC/C(=C(\c1ccccc1)c1ccc(OCCN(C)C)cc1)c1ccccc1 [Tamoxifen] | > 10 | > 10 | > 10 | 2.49 |  | 3.25 | 3.9 |  | 3.34 | 3.95 | 2.3 |  |  | 3.37
Nc1ncnc2c1c(COc1cccc(Cl)c1)nn2C1CCOCC1 | > 10 | > 10 | > 10 | > 10 | > 10 | > 10 | > 10 |  | > 10 |  |  |  | > 10 | > 10
COc1cc2/c(=N/c3ccc(Br)cc3F)nc[nH]c2cc1OCC1CCN(C)CC1 [Vandetanib] | > 1 |  | > 1 |  | > 1 | > 1 | 0.0865 | > 1 | > 1 |  | > 1 |  | > 1 | > 1
CN(C)/N=N/c1[nH]cnc1C(N)=O [Dacarbazine] | > 10 | > 10 | > 10 | > 10 | > 10 | > 10 | > 10 | > 10 | > 10 | > 10 | > 10 |  |  | > 10
